Measurements from PubChem BioAssay (NCI).
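Step 1: Grow cells in 96-well plates. Step 2: Expose to compound for 48 hours at 5 concentrations. Step 3: Interpolate endpoints linearly; if unreached, use highest concentration. GI50 is the concentration that inhibits growth by half. The concentration for full growth arrest is given as TGI.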

Columns and labels:
Assay in all cases: DTP human tumour cell line panel, 48 h
OVCAR-8 ovarian = test system: OVCAR-8 ovarian
SW-620 colon = test system: SW-620 colon
SF-295 CNS = test system: SF-295 CNS
EKVX NSCLC = test system: EKVX NSCLC
RXF 393 renal = test system: RXF 393 renal
SK-MEL-28 melanoma = test system: SK-MEL-28 melanoma
BT-549 breast = test system: BT-549 breast
NCI-H522 lung = test system: NCI-H522 lung
RPMI-8226 leukemia = test system: RPMI-8226 leukemia
HCT-15 colon = test system: HCT-15 colon
T-47D breast = test system: T-47D breast
HOP-92 NSCLC = test system: HOP-92 NSCLC
SR leukemia = test system: SR leukemia
SF-268 CNS = test system: SF-268 CNS
DU-145 prostate = test system: DU-145 prostate
HT29 colon = test system: HT29 colon
MDA-MB-435 = test system: MDA-MB-435

SMILES | TGI (OVCAR-8 ovarian) [µM] | TGI (SW-620 colon) [µM] | TGI (SF-295 CNS) [µM] | TGI (EKVX NSCLC) [µM] | TGI (RXF 393 renal) [µM] | TGI (SK-MEL-28 melanoma) [µM] | TGI (BT-549 breast) [µM] | TGI (NCI-H522 lung) [µM] | TGI (RPMI-8226 leukemia) [µM] | TGI (HCT-15 colon) [µM] | TGI (T-47D breast) [µM] | TGI (HOP-92 NSCLC) [µM] | TGI (SR leukemia) [µM] | TGI (SF-268 CNS) [µM] | TGI (DU-145 prostate) [µM] | TGI (HT29 colon) [µM] | TGI (MDA-MB-435) [µM] | GI50 (HOP-92 NSCLC) [µM]
O=C(NNC1=NCCN1)c1ccco1 | > 100 | > 100 | > 100 | > 100 | > 100 | > 100 | > 100 | > 100 | > 100 | > 100 | > 100 | > 100 | > 100 | > 100 | > 100 | > 100 | > 100 | 
CN(C(=O)Cc1cc(Cl)c(Cl)cc1N=C=S)[C@H]1CCCC[C@@H]1N1CCCC1 | 28.8 | 23.6 | 31.9 | 31.7 | 13.1 | 7.65 | 29.5 | 27.7 | 28 | 29.1 | 37.4 | 21.9 | 3.49 | 31.4 | 27.8 | 18.7 | 17 | 
CCCCCC/C=C\CCCCCCCCCc1cccc(O)c1C(=O)O | > 100 | > 100 | > 100 | > 100 | > 100 | > 100 | > 100 | > 100 | > 100 | > 100 | > 100 | > 100 | > 100 | > 100 | > 100 | > 100 | > 100 | 
CCCN(C(=O)c1c(Cl)nnc(Cl)c1C(=O)c1cc(Cl)nnc1Cl)c1cc(Cl)nnc1Cl | 5.78 | 25.5 | 42.3 | 27.3 | 8.49 | 28.1 | 32.9 | 13.3 | 17.1 | 18.5 | 23 | 36.9 | 20.3 | 20.2 | 27.6 | 43.4 | 37 | 
C1=NCCNCCN=Cc2ccc(cc2)OCc2cccc(n2)COc2ccc1cc2 | > 100 | > 100 | > 100 | > 100 | > 100 | > 100 | > 100 | > 100 | > 100 | > 100 | > 100 | > 100 | > 100 | 83.9 | > 100 | > 100 | > 100 | 
CCOC(=O)CSc1nc(-c2ccccc2)c(C#N)c(=O)[nH]1 | > 100 | > 100 | > 100 | > 100 | > 100 | > 100 | > 100 | 47 | > 100 | > 100 | > 100 | > 100 | > 100 | > 100 | > 100 | > 100 | > 100 | 
COc1nc(N)c(NC2OC(CO)C(O)C2O)c(=O)[nH]1 (configuration not stated) | > 100 | > 100 | > 100 | > 100 | > 100 | > 100 | > 100 | > 100 | > 100 | > 100 | > 100 | > 100 | > 100 | > 100 | > 100 | > 100 | > 100 | 
Cc1ccc(-c2nc3ccc(Cl)cc3[nH]2)cc1 | > 100 | > 100 | > 100 | > 100 | > 100 | > 100 | > 100 | > 100 | > 100 | > 100 | > 100 | > 100 | > 100 | > 100 | > 100 | > 100 | > 100 | 
CN(/N=C(\C(=O)O)c1ccccc1)C1=NCCCN1 | > 100 | > 100 | > 100 | > 100 | > 100 | > 100 | > 100 | > 100 | > 100 | > 100 | > 100 | > 100 | > 100 | > 100 | > 100 | > 100 | > 100 | 
O=C(NCc1cccnc1)NCc1cccnc1 | > 100 | > 100 | > 100 | > 100 | > 100 | > 100 | > 100 | > 100 | > 100 | > 100 | > 100 | > 100 | > 100 | > 100 | > 100 | > 100 | > 100 | 
CC(=O)OC1C(O)COC(O[C@H]2CC[C@]34C[C@]35CC[C@]3(C)C([C@@]6(C)CC[C@@H](C(C)(C)O)O6)[C@@H](O)C[C@@]3(C)C5C[C@H](OC3OCC(O)C(O)C3O)[C@H]4C2(C)C)C1OC1OCC(O)C(O)C1O (some centres not stated) | > 100 | > 100 | > 100 | > 100 | > 100 | > 100 | > 100 | > 100 | > 100 | > 100 | > 100 | > 100 | > 100 | > 100 | > 100 | > 100 | > 100 | 
O=c1oc2ccccc2c(Nc2ccc3c(c2)S(=O)(=O)c2ccccc2O3)c1[N+](=O)[O-] | 78.4 | > 100 | 77.7 | > 100 | 51.2 | 51.9 | 70.4 | 42.9 | 59.8 | > 100 | 62.3 | 55.9 | 72.6 | > 100 | > 100 | > 100 | 97.3 | 
CC12Nc3ccccc3N1C(=O)c1ccccc12 (configuration not stated) | > 100 | > 100 | > 100 | > 100 | > 100 | > 100 | > 100 | > 100 | > 100 | > 100 | > 100 | > 100 | > 100 | > 100 | > 100 | > 100 | > 100 | 
Cc1cc(C)c(C2=NOC(c3ccccc3)(c3cc(=O)n(-c4ccccc4)s3)O2)c(C)c1 (configuration not stated) | 36.5 | > 100 | > 100 | 50.2 | 33.3 | 94.4 | 52.4 | 35.8 | > 100 | 41 | 44 | 62.5 | > 100 | > 100 | > 100 | 41.2 | > 100 | 
CC1C(c2ccccc2)OP(=O)(OC(C#N)c2ccccc2)N1C (configuration not stated) | > 100 | > 100 | > 100 | > 100 | > 100 | > 100 | > 100 | > 100 | > 100 | > 100 | > 100 | > 100 | > 100 | > 100 | > 100 | > 100 | > 100 | 
C=CCOC(=O)/C(=C\c1ccc(OC)c(OC)c1)c1ccc(OC)c(OC)c1 | > 100 | > 100 | > 100 | > 100 | 99.5 | > 100 | > 100 | > 100 | 47.6 | > 100 | 98.4 | > 100 | 72.3 | > 100 | > 100 | > 100 | > 100 | 
C#CCOCC12C=CC(O1)C1C(=O)N(C)C(=O)C12 (configuration not stated) | > 100 | > 100 | > 100 | > 100 | > 100 | > 100 | > 100 | > 100 | > 100 | > 100 | > 100 | > 100 | > 100 | > 100 | > 100 | > 100 | > 100 | > 100
CCC1C(c2cc(OC)c(OC)c(OC)c2)c2cc3c(cc2OC1N1CCCC1)OCO3 (configuration not stated) | 23.9 | 45.4 | 8.25 | 59.8 | 9.31 | 60.6 | 49.4 | 10.1 | 26.2 | 27.2 | 41.9 | 21.3 | > 47.6 | 33 | 14.6 | 10.9 | 1.07 | 
